# Patent US11007199B2, “Compositions and methods for ameliorating pain and reducing fever” (The Board of Supervisors of Louisiana State University and …, priority 2017, dated 2021)
# “Also recorded” adds a separate entry of the source.
# Experiments:
# CD-1 male mice [1] = assay: Acetic acid-induced abdominal writhing assay; type: in vivo
# Procedure: Acetic acid-induced abdominal writhing assay. Contraction of the abdominal muscle and stretching of the hind limbs is induced as a response to intraperitoneal (ip) injection of an acetic acid solution, as described Hendershot and Forsaith, 1959. In this model of visceral pain, abdominal contractions (writhing) is induced in mice by an ip injection of 0.4% acetic acid at a dose of 10 mL/Kg, 25 min after drug administration. The number of writhes is counted for 10 min beginning 5 min after acetic acid injection.
# All groups have been compared to vehicle and differences analyzed by one-way ANOVA followed by Sidak's multiple comparison post hoc test.
# hepatocytes = assay: Hepatotoxicity (LDH assay, GSH assay); type: cell-based; settings: FIG. 6
# Procedure: LDH assay. Using the Pierce LDH Cytotoxicity assay kit from Thermo Scientific, cells were incubated in presence of various drug compounds, followed by collection of the medium supernatant. Release of LDH was measured in 96 well plate formats. The absorbance was measured at 490 nm and 680 nm and the final result was absorbance observed at 680 nm subtracted from absorbance observed at 490 nm (A490nw-A680nm).
# GSH assay. Using the ThiolTracker Violet Glutathione Detection reagent from Molecular Probes (Invitrogen), after hepatocytes were incubated in the presence of various compounds, incubation medium was removed, cells rinsed with D-PBS conditioned medium followed by incubation with pre-warmed ThiolTracker Violet dye (working solution prepared as per manufacturer's instructions) for 30 minutes. Fluorescence was measured at the following wavelengths: excitation (404 nm) and emission (526 nm). The finalized result was expressed as relative fluorescence units (RFU), which indicates the cellular level of reduced glutathione (GSH) in intact cells.
# Hepatotoxicity results for the inventive DEA salt compound are shown m FIG. 6.
# CD1 male mice = assay: Tail-flick assay; settings: in vivo analgesia model, FIG. 8; per os at 40 mg/kg
# Procedure: Tail-flick assay. Analgesic effect of drugs was determined by using the reaction time (latency) of mice to thermal stimulation of the tail tip. All animals (CD1 male mice) were fasted overnight (with free access to water) and their baseline tail flick latency (seconds) was recorded twice for each mouse using an IITC Tail Flick Analgesia Meter.
# After measurement of baseline latency, drugs were administered per os at 40 mg/kg to animals belonging to the treatment groups. At 30 minutes post injection, tail flick latency was recorded again, twice for each mouse, to determine total change in latency. Mice were subjected to cold shock by dipping their tails into ice-cold water at 4° C.
# Percentage of maximum analgesia for each mouse were calculated with the formula, Percentage Analgesia=100*{[(Latency to tail flick after drug injection)−(Latency to tail flick at baseline)]/[(12 sec cutoff time)−(Baseline latency)]}. Data expressed as mean±SEM, n=10.
# rats = assay: Von Frey analgesia assay; settings: in vivo analgesia model, FIG. 8; IP injection
# Procedure: Von Frey analgesia assay. Twenty rats are brought into the eVF room and allowed to acclimate to the room for 30 minutes. At the 30 minute mark, saline injections begin. 30 minutes after the saline injection, the eVF readings of the rats are taken by applying the filament of the eVF machine to the center of the bottom of the hind paws (left and right) of each rat. The filament uses a magnet to remain attached to the probe, which measures the pressure in grams applied to the filament. The pressure readout is then recorded from the transducer.
# After saline injections, a drug is injected (different compound each day). In the same manner as saline injections, at the 30 minute mark after each drug injection, eVF readings of each rat are taken.
# Drug Injection/Concentration: All drugs and saline were administered by intraperitoneal (IP) injection. Each injection was 1 mL/kg of body weight (i.e., 463 g rat received 0.463 mL of injection). Four doses on a logarithmic scale for ApAP w ere used. 10 mg/kg, 32 mg/kg, 100 mg/kg, and 320 mg/kg.
# CD-1 male mice [2] = assay: Baker yeast-induced hyperthermia (antipyresis); type: in vivo; settings: 50 mg/kg bw p.o., baker's yeast-induced fever, FIG. 5
# Procedure: The antipyretic effect of the compounds was assessed utilizing baker yeast-induced hyperthermia. All animals (CD-1 male mice weighing between 45-50 g) were fasted overnight (with free access to water) and their baseline temperature was recorded using a Cole-[…] rectal thermometer probe. […] (206% […].); (Groups 5-6) DEA salt-Brewer's yeast soln. (20% w/v) (i.p.) and DEA Salt (50 mg/kg bw) (p.o.). Two hours post-injection, rectal temperatures were recorded once again, to determine total change in body temperature. Percentage Change in body temperature is calculated with the formula, Percentage Change=[(Total change in body temperature)/(Base temperature)*100]. Data is expressed as mean±SEM, n=10.
compound,measurement,setting,value
"CCNCC.O=C(CNS(=O)(=O)c1ccccc1C(=O)O)Nc1ccc(O)cc1 [DEA salt, 2-[[2-(4-hydroxyanilino)-2-oxo-ethyl]sulfamoyl]benzoate diethylammonium salt]",calculated 50% effective dose (ED50) based on the writhing assay,"CD-1 male mice [1]; CD-1 male mice, per os, ip 0.4% acetic acid",10.3 mg/kg
same,number of writhes induced by injection of acetic acid,"CD-1 male mice [1]; FIG. 8, vehicle only nearly 40",under 20
same,"reducing pain versus ApAP, acetic acid-induced abdominal writhing","CD-1 male mice [1]; in vivo analgesia model, FIG. 8",comparable to ApAP in reducing pain
same,hepatotoxicity versus ApAP,hepatocytes,minimal hepatotoxicity; also recorded: decreased toxicity
same,"reducing pain versus ApAP, tail flick assay",CD1 male mice,comparable to ApAP in reducing pain
same,"reducing pain versus ApAP, Von Frey assay",rats,comparable to ApAP in reducing pain
same,antipyretic effect versus ApAP,CD-1 male mice [2],antipyretic effect comparable to ApAP
